In patent US11213522B2, “Autoimmune-induced glutamatergic receptor dysfunction methods and treatments” (SARAH HERZOG MEMORIAL HOSPITAL EZRAT NASHIM ASSOCIATION, priority 2013, dated 2022):

Tests used:
Format in all cases: in vivo, human
[1] = test system: patient positive for anti-NR1 NMDAR antibodies; test: Corsi Block Tapping Test (CBTT), forward and backward; settings: post-6 weeks D-serine
Procedure: (§1) The trial consisted of two periods, starting with a 2 week lead-in/stabilization period (−2-0) following which the patient was entered in the second period of the study which consisted of a 6 week (0-6), open-label, fixed dose therapy phase. During this phase, the patient received adjuvant treatment with DSR, whose dose was increased from 1500 mg/day (week 1) to 2000 mg/day (weeks 2 and 3) to 3000 mg/day (weeks 4 and 5) and to 4000 mg/day (week 6). The doses of the ongoing medication received by the patient remained fixed throughout the study and no changes in medication were performed.
(§2) In addition, cognitive performance was assessed pre- and post DSR treatment. For this purpose, a 1.5-hour neurocognitive assessment battery (nine computerized and two paper/pencil tests) was employed that measures accuracy and speed of performance in major cognition domains, including attention/vigilance, planning, short-term and working memory, decision making, abstraction and mental flexibility. All the tests were formatted like games and puzzles, and were administered to the patient as part of the comprehensive neuropsychiatric assessment at baseline and the end of study. The neurocognitive battery included the 1) Test of Attentional Vigilance (TOAV, (Forbes, 1998, Journal of Clinical Psychology 54:461-476; Greenberg, 1993, Journal of Child Psychology and Psychiatry 34: 1019-30)); 2) Tower of London (TOL, (Shailice, 1982, Specific impairments of planning Philosophical Transactions of the Royal Society of London. Series B, Biological Sciences 298:199-209); 3-4) Digit Span Test (DST, forward and backward (Wechsler 1997, The Wechsler adult intelligence scale-III. San Antonio, Tex.: Psychological Corporation; Kaplan 1991, The WAIS-R as a neuropsychological instrument. San Antonio, Tex.: The Psychological Corporation; Lamar et al., 2007, Neuropsychologia 45:245-54; Lamar et al., 2008, Neuropsychologia 46:2597-601)); 5-6) Corsi Block Tapping Test (CBTT, forward and backward, (Corsi, 1972, Dissertation Abstracts International. 34:819B; Kessels et al., 2000, Applied Neuropsychology 7:252-58, Kessels et al., 2008, Assessment 15:426-34)); 7) Flanker Task (Erikson and Eriksen, 1974; Perception & Psychophysics 25: 249-63, Stins et. al., 2007, Advances in Cognitive Psychology 3:389-96); 8) Time Wall (Perez et al., 1987, Unified Tri-services cognitive performance assessment battery: review and methodology; DTIC Document ADA181697, http://www.dtic.mil/dtic/tr/fulltext/u2/a81697.pdf); and Wisconsin Card Sort Test (WCST, (Berg, 1948, J Gen Psychol39:15-22; Nelson, 1976, Cortex 12:313-24)). […]

[2] = test system: patient positive for anti-NR1 NMDAR antibodies; test: Electroencephalogram (EEG) pre- and post-DSR administration
Procedure: as §1
The patient underwent prior to entering the study and at study weeks 3 and 6 a medical work-up including complete medical history, and routine clinical blood work, including blood count+differential, lipids, and glucose levels, kidney, thyroid, and liver function parameters, urinalysis, and blood pressure measurements. Abdominal ultrasound was performed prior to study entry and electroencephalogram (EEG) and brain magnetic resonance imaging (MR1) were obtained pre- and post-DSR administration.

[3] = test system: patient positive for anti-NR1 NMDAR antibodies; test: Test of Attentional Vigilance (TOAV); settings: post-6 weeks D-serine
Procedure: as §1
as §2, with “International.” for “International. 34:819B; Kessels et al., 2000, Applied Neuropsychology 7:252-58, Kessels et al., 2008, Assessment 15:426-34)); 7) Flanker Task (Erikson and Eriksen, 1974; Perception & Psychophysics 25: 249-63, Stins et. al., 2007, Advances in Cognitive Psychology 3:389-96); 8) Time Wall (Perez et al., 1987, Unified Tri-services cognitive performance assessment battery: review and methodology; DTIC Document ADA181697, http://www.dtic.mil/dtic/tr/fulltext/u2/a81697.pdf); and Wisconsin Card Sort Test (WCST, (Berg, 1948, J Gen Psychol39:15-22; Nelson, 1976, Cortex 12:313-24)).”

For `N[C@H](CO)C(=O)O` [D-serine], the “CBTT Backward Span Length (2-9)” value ([1]; pre-treatment 4) was 3.5, the “CBTT Forward Span Length (2-9)” value ([1]; pre-treatment 5) was 4 and the “CBTT Backward Number Correct (0-16)” value ([1]; pre-treatment 6) was 5. For the same compound, the “CBTT Forward Number Correct (0-16)” value ([1]; pre-treatment 8) was 6, the “Current latency of EDB over the right frontal area” value ([2]; following DSR treatment, t=2.686, df=113, p=0.0083, F8 channel) was “significant reduction” and the “EEG extreme delta brush (EDB) pattern” value ([2]; post- vs pre-DSR administration (six weeks)) was “attenuation of the EDB pattern”. For the same compound, the “EEG coherence between electrodes” value ([2]; post- vs pre-six weeks of D-serine, across all frequency bands) was “Distinct new patterns of EEG coherence”, the “TOAV Commission errors” value ([3]; pre-treatment 1) was 0 and the “TOAV Omission errors” value ([3]; pre-treatment 1) was 2. The “TOAV Response time, mean ± SD” value ([3]; pre-treatment 562 ± 103) was 523 ± 93 milliseconds.
